Laboratory results reported in patent publication US20240034765A1, “SCG2 NEUROPEPTIDES AND USES THEREOF” (PRESIDENT AND FELLOWS OF HARVARD COLLEGE, priority 2020, published 2024).

Legend:
CA1 neurons = assay: AAV-based activity reporter mKate2 labelling of recently activated CA1 neurons; assay type: in vivo, mice; settings: 24 h post-KA injection
Description: First, tests were performed to determine whether either of these forms of perisomatic inhibition (by PV-expressing INs and CCK-expressing INs) are differentially regulated onto Fos-expressing neurons compared to neighboring non-Fos-expressing neurons. Mice were exposed to a series of novel environments, which robustly activated Fos in a sparse subset of CA1 PCs (see e.g., FIG. 1A, FIG. 7A-FIG. 7D). To label these Fos-expressing neurons, an adeno-associated virus (AAV)-based reporter was used that expresses the fluorescent protein mKate2 selectively in recently activated neurons (see e.g., FIG. 1B); see e.g., Fenno et al. Nat Methods 11, 763-772, (2014), the content of which is incorporated herein by reference in its entirety. Using this reporter, a significant increase was detected in the number of recently activated neurons (mKate2^+) in mice exposed to 2-3 days (see e.g., FIG. 1D) of novel environments (NE) compared to control mice housed under standard (Strd) conditions (see e.g., FIG. 1C). This 2-3d timepoint was therefore appropriate for assessing the long-lasting effects of Fos and its late-response target gene(s), which were usually activated within 1-12 hours (h) of stimulus onset (see e.g., FIG. 1D).
Intraperitoneal (i.p.) injections.
Histology. Mice were anaesthetized with 10 mg/mL ketamine and 1 mg/mL xylazine in phosphate buffered saline (PBS) via i.p. injection. […]

CA1 = assay: Cell health in CA1 24 h post-KA (Hoechst, NeuN, cleaved-caspase 3 immunostaining); assay type: in vivo, mice; settings: within 24 h of KA injection
Description: FIG. 8A-8Q is a series of schematics, images, and graphs showing IN-to-CA1 PC paired recordings and cell health parameters in 24 h post-KA condition. FIG. 8A and FIG. 8G are schematics of the genetic strategy to label PV-INs (PV^Cre; Ai14; FIG. 8A) or CCK-INs (D1×5/6^Flp; CCK^Cre; Ai65; FIG. 8G). FIG. 8B and FIG. 8H are representative images of tdTomato fluorescence in the CA1 field. Scale: 100 μm. N=2 mice per line. FIG. 8C and FIG. 8I are bar graphs showing quantification of the fraction of (FIG. 8C) PV- or (FIG. 8I) CCK-to-CA1 PC synaptically-connected pairs from the overall number of pairs recorded in both vehicle (Veh.) and 24 h post-KA mice. In FIG. 8C, Veh., n=13/22; KA, n=19/30; in FIG. 8I, Veh., n=16/40; KA, […], where n=number of connections/total pairs. FIG. 8D and FIG. 8J are dot plots showing quantification of the maximum firing rate of (FIG. 8D) PV- or (FIG. 8J) CCK-INs from connected pairs. […] FIG. 8E and FIG. 8K are dot plots showing quantification of spike adaptation ratio of (FIG. 8E) PV- or (FIG. 8J) CCK-INs from connected pairs as in FIG. 8D and FIG. 8J, respectively. FIG. 8F and FIG. 8L are line graphs showing quantification of paired pulse ratios (PPRs) of uIPSCs at the indicated interstimulus intervals (ISI) for (FIG. 8F) PV- (Veh., n=13/6; KA, n=19/7) or (FIG. 8L) CCK- (Veh., n=16/9; KA, n=16/4) to-CA1 PC connected pairs, where n=number of pairs/number of mice. […]

specific cell types = settings: cited from earlier work
[1] = tested on: hM3DGq-expressing neurons; assay: Cell-attached recording of CA1 PC in slice after bath application of CNO; assay type: cell-based, mice; settings: cell-attached mode

## C=C(C)[C@H]1CN[C@H](C(=O)O)[C@H]1CC(=O)O [kainic acid]
CA1 neurons
  average percentage of mKate2+ neurons over total number of DAPI cells: 96%
CA1
  cell death (Hoechst+, NeuN+, cleaved-caspase+ cells per 40-μm section, all layers of CA1): did not induce cell death

## secretoneurin (TNEIVEEQYTPQSLATLESVFQELGKLTGPNNQ; listed as Homo sapiens) [33 aa]
Specific cell types
  chemotaxic effects on specific cell types: chemotaxic effects

## C[N+]1([O-])CCN(C2=Nc3cc(Cl)ccc3Nc3ccccc32)CC1 [CNO, clozapine N-oxide]
[1]
  firing rate of hM3DGq-expressing CA1 PC: firing rate increases
